The record followed here is US7615361B2, “Toxicity screening methods” (Ceetox, Inc., priority 2006, dated 2009).

Each structure is given as a SMILES string.

What all share (assay type): cell-based
Data set [1] in a line: MTT reduction. The conditions noted are these: read-out: MTT TC50. As to the method: (§1) Tetrazolium Dye Reduction: 3-[4,5-dimethylthiazol-2-yl]
(§2) Dosing solutions were prepared in complete culture medium.
(Formazan colour is commonly taken as a measure of viable cells.)

The nature of another data set: Intracellular ATP levels. The conditions noted are these: rat, NRK cells, read-out: ATP TC50. As to the method:
Intracellular ATP Levels: Cellular Adenosine triphosphate (ATP) was determined with an assay based on a reaction between ATP+D-luciferin+oxygen catalyzed by luciferase to yield Oxyluciferin+AMP+PPi+CO2+light. The emitted light is proportional to the amount of ATP present. […] In addition, a unique cell lysis reagent inhibits endogenous ATPases and therefore stabilizes cellular ATP by preventing its degradation to ADP. ATP is present in all-living cells and declines rapidly upon cell death. In addition, this assay in combination with the MTT assay provides an indicator of mitochondrial activity and energy status of the cell.
Plates were analyzed immediately or stored at −20° C. until needed. On the day of analysis, the plates were thawed and calibration curve prepared with ATP in the same liquid matrix as samples. ATP was quantified by adding ATP substrate solution and then reading luminescence on a Packard Fusion Luminescence or equivalent plate reader.
Intracellular ATP Levels: ATP levels in treated cells could be determined by using the regression coefficients obtained from the linear regression analysis of the calibration curve. Thus, values could be expressed as pmoles ATP/million cells. Background corrected luminescence was used to determine percent change relative to controls by dividing treated values by control values and multiplying by 100.
(§3) The third experiment was done to evaluate the specificity and selectivity of the test compound in another non-tumor cell that was derived from normal rat kidney tissue. In this experiment the test compound has no effect on cell number of acute cell death up to the 500 dilution after 6 and 24 hr of exposure (FIG. 76C and 77C). Significant effects were observed on mitochondrial markers at dilutions that dropped pH to 3.7. The bar graph in FIG. 82 summarizes these effects. […] In contrast the rat tumor cell line was sensitive to the test compound and cell death occurred at the 500 dilution and could not be attributed to low pH.

The target in data set [2] is T1, P-glycoprotein (PgP) (Homo sapiens, UniProt P08183). In words: P-glycoprotein (PgP) binding: MTT with and without cyclosporin A, HUVEC. As to conditions: HUVEC 24 HR; for % Control (Compound + CSA): with cyclosporin A; for % Control (Compound): without CSA. On the set-up: SK-MEL28, human hepatocytes, HUVEC, C32, and NHEM cells were used as the test systems; endogenous in cells.

Data set [3] can be described thus: MemTox membrane leakage (AK / α-GST). As to conditions: rat, NRK cells, read-out: GST TC50. As to the method: Membrane Leakage (α-Glutathione S-transferase and/or Adenylate Kinase): The presence of Adenylate Kinase (AK) or α-Glutathione S-transferase (α-GST), both enzyme leakage markers, was measured in the culture medium using an activity assay for Adenylate Kinase and/or an ELISA assay for α-GST. At the end of the exposure period, the medium covering the cells in each well was removed and placed into new 96-well plates with appropriate labeling. […] Luminescence (AK) values were measured with a Packard Fusion or equivalent plate reader, and absorbance (α-GST) values were measured with a Packard SpectraCount™ or equivalent reader at 450 nm and reference absorbance at 650 nm.
Membrane Leakage (α-Glutathione S-transferase and/or Adenylate Kinase): Leakage of Adenylate Kinase or α-GST from the cell into the culture medium was determined by collecting the culture medium at the end of the exposure period. Thus, the values measured represent total enzyme leakage lost over the exposure period. The control for 100% dead or maximum enzyme release was based on cells treated with 1 mM digitonin at the time of dosing. Percent dead cells relative to digitonin treated cells was determined and then subtracted from 100% to yield the percent live cells.
as §3

Data set [4] deals with T1, P-glycoprotein (PgP). In words: P-glycoprotein (PgP) binding: MTT with and without cyclosporin A, SK-MEL28 cells. The conditions noted are these: SK-MEL28 24 HR; for % Control (Compound + CSA): with cyclosporin A; for % Control (Compound): without CSA. Details: SK-MEL28, human hepatocytes, HUVEC, C32, and NHEM cells were used as the test systems; endogenous in cells; host or cells: SK-MEL28 cells.

Data set [5] is described as follows: MTT reduction. As to conditions: rat, NRK cells, read-out: MTT TC50.
Text: as §1, §3

Data set [6] in a line: Cell number (propidium iodide). As to conditions: human, read-out: Cell Number TC50; for CC50 at 72 h: SK-MEL28 cells, SK-MEL28, 72 HR, run #2. As to the method: Cell Proliferation: Cell proliferation in each well was measured with propidium iodide (PI). This specific nucleic acid binding dye fluoresces when intercalated within the nucleic acids. The 15 nm shift enhances PI fluorescence approximately 20 times while the excitation maxima are shifted 30-40 nm. During method development experiments, it was determined that Triton-X-100 was the best solution to permeabilize the H4IIE cells thereby allowing the PI access to intracellular RNA and DNA. Fluorescence was measured using a Packard Fusion plate reader or equivalent reader at 540 nm excitation and 610 nm emission.
Cell Proliferation: After incubation, the test compound was removed and Triton X-100 solution containing propidium iodide is added. The plate was incubated and read on a fluorescent plate reader. Data was collected as relative fluorescent units (RFU). The blank was subtracted from the final well RFU. It represents the average of the first and last columns which contain no cells on that particular plate. The controls are untreated cells allowed to grow on the same plate. The compounds are represented by several separate RFU data points for each of the tested concentrations. The percent change relative to controls was calculated by dividing the average RFU by the control cell RFU and multiplying by 100.
as §2

T1 sequence (P08183 whole entry): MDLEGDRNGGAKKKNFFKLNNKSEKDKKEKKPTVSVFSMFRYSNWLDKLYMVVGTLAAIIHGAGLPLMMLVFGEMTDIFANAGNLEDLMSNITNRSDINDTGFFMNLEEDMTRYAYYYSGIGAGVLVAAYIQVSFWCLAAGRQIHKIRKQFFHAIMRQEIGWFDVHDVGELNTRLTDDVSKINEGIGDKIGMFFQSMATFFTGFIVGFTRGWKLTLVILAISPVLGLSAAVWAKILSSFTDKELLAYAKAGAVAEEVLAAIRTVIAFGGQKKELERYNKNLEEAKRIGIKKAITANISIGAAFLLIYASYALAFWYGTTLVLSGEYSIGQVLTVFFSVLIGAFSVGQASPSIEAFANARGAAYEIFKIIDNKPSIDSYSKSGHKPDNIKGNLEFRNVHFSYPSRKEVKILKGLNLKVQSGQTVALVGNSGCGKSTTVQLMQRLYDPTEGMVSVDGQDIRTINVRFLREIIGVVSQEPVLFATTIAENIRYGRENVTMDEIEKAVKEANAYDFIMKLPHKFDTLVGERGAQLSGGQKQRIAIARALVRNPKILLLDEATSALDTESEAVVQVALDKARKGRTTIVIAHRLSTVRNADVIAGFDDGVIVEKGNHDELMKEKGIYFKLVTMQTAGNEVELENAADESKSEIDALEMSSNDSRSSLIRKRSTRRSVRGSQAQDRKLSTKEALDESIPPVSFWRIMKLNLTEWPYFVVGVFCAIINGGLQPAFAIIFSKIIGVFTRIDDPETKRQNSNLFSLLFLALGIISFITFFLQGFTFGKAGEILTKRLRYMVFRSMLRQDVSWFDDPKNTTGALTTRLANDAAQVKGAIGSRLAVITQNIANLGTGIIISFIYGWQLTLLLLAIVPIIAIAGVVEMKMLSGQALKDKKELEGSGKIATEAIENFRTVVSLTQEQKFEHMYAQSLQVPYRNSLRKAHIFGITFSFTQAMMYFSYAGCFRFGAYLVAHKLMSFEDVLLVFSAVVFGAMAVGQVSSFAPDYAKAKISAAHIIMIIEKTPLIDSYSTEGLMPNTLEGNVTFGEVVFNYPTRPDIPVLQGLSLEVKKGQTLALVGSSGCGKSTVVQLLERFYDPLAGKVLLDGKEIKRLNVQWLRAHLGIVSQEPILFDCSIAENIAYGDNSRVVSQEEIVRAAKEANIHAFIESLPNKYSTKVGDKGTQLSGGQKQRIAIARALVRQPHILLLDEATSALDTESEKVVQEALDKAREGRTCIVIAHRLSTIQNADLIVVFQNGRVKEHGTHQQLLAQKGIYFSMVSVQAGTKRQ

Regarding `C=C(C)[C@H]1Cc2c(ccc3c2O[C@@H]2COc4cc(OC)c(OC)cc4[C@@H]2C3=O)O1` [ROTENONE, Rotenone], the CC50 at 24 h was determined as 3 µM in the data set “MTT reduction [1]” (human hepatocytes), 10 µM in “Intracellular ATP levels”, 10 µM in data set [3] and 10 µM in the data set “MTT reduction [5]”. Besides, the CC50 at 6 h (in “Intracellular ATP levels”; in data set [3]; in the data set “MTT reduction [5]”) was 10 µM in each case. The “% Control (Compound + CSA)” value at P-glycoprotein (PgP) [2] is 77.8%; at P-glycoprotein (PgP) [4] it was 117.3%. The “% Control (Compound)” value turned out to be 75.4% at P-glycoprotein (PgP) [2] and 98.2% at P-glycoprotein (PgP) [4]. The CC50 at 72 h in data set [6] was determined as 1 µM.
Consider `CC[C@@]1(O)C(=O)OCc2c1cc1n(c2=O)Cc2cc3ccccc3nc2-1` [CAMPTOTHECIN, Camptothecin], for which the CC50 at 24 h was determined as 213 µM in the data set “MTT reduction [1]” (human, C32 cells, C32, 24 HR); 41 µM in the data set “MTT reduction [1]” (human, HUVEC); 9 µM in “Intracellular ATP levels”; 100 µM in data set [3]; 100 µM in the data set “MTT reduction [5]”; 85 µM in data set [6] (HUVEC). Besides, the CC50 at 6 h (in the data set “Intracellular ATP levels”; in data set [3]; in the data set “MTT reduction [5]”) was 300 µM in each case. Further, the “% Control (Compound + CSA)” value at P-glycoprotein (PgP) [2] came to 18.0%; on P-glycoprotein (PgP) [4], 63.3%. The “% Control (Compound)” value at P-glycoprotein (PgP) [2] is 29.4%; at P-glycoprotein (PgP) [4], 56.5%. Also, the CC50 at 72 h in data set [6] was determined as 0.1 µM.
